Laboratory results published in publication PMC6222558, “Synthesis and Evolution of Berberine Derivatives as a New Class of Antiviral Agents against Enterovirus 71 through the MEK/ERK Pathway and Autophagy” (Molecules : A Journal of Synthetic Chemistry and Natural …, 2018).
Structures can show the parent of a compound that is named as a salt.

What was measured:
[1] = tested on: EV71 JS-52 strain (genotype C4); test: CPE inhibition assay for anti-EV71, JS-52 strain; type: cell-based, enterovirus 71 (EV71); settings: Enterovirus A, EV71; Vero cells; CPE; calculated on the organic part; n = 3; read-out: JS-52 Strain IC50
Method: (§1) Thus, all newly synthesized BBR analogues were screened for their anti-EV71 potencies in African green monkey kidney (Vero) cells taking BBR as the positive control. EV71 strains used in the present study include different genotype strains, such as H strain (VR-1432, genotype C2), BrCr strain (VR-1775, genotype A), and JS-52 and SHZH98 (genotype C4). The potency against EV71 strains above mentioned of each tested compound was evaluated by the combination of its IC50 and selectivity index (SI) value as the important therapeutic indication.
(§2) Vero cells were purchased from the American Type Culture Collection (ATCC, […], MD, USA), and were cultured in Minimum Essential Medium (MEM) supplemented with 10% fetal bovine serum (FBS) (GIBCO, Grand Island, NY, USA) and antibiotics (100 U/mL penicillin and […] streptomycin) at 37 °C in a 5% CO2 incubator. EV71 strain SHZH98 isolated from the throat swab sample of an HFMD case occurring in 1998 in China was kindly provided by Dr. Qi Jin (Institute of Pathogen Biology, Chinese Academy of Medical Science and Peking Union Medical School, Beijing, China), and JS-52 strain was a kind gift from Dr. Xiangzhong Ye (Beijing Wantai Biological Pharmacy Enterprise Co., Ltd., Beijing, China). The EV71 BrCr and H strains were purchased from the ATCC. All of EV71 strains were passaged in Vero cells.
(§3) The anti-EV71 activities of all tested compounds were detected by the virus-induced CPE assay. Briefly, cells (3 × 10^4 cells/well) were plated into 96-well culture plates and incubated for 16 h. Then, remove the medium and infected cells with EV71 of 100 × TCID50 (50% tissue culture infective doses) in serum-free medium for 1 h at 37 °C. After that, the unbound viruses were removed and various concentrations of tested compounds were supplemented for incubation of another 72 h. […] TC50 defined as the concentration that leads to the 50% of CPE which determined by the same method in 72 h. In addition, the cells were stained the cells were colored with 0.5% crystal violet in 20% ethanol for 15 min at room temperature and the cells were imaged after rinsed with PBS.

Vero cells = test: Cytotoxicity assay (CCK) in Vero cells; type: cell-based, African green monkey; settings: Vero cells; calculated on the organic part; n = 3
Method: as §2
Cytotoxicity of all target compounds in Vero cells was analyzed by CCK (TransGen Biotech, Beijing, China) assay. In brief, cells in exponential phase (3 × 10^4 cells/well) were seeded into 96-well culture plates and incubated overnight. Then, the medium was removed and different concentrations of all target compounds were applied in duple. After 48 h incubation, the cytotoxicity of all target compounds was determined by CCK assay. The signals were read at 450 nm on Enspire (Perkin Elmer, Waltham, MA, USA). The TC50 was defined as the concentration that inhibits 50% cellular growth in comparison with the controls. It is calculated by the Reed and Muench method.

[2] = tested on: MEK/ERK signaling pathway; parameters: method as in PMID 28081706; settings: cited from earlier work
[3] = tested on: EV71 H strain (VR-1432, genotype C2); test: CPE inhibition assay for anti-EV71, H strain; type: cell-based, enterovirus 71 (EV71); settings: Enterovirus A, EV71; Vero cells; CPE; calculated on the organic part; n = 3; read-out: H Strain IC50
Method: as §1, §2, §3

[4] = tested on: EV71 BrCr strain (VR-1775, genotype A); test: CPE inhibition assay for anti-EV71, BrCr strain; type: cell-based, enterovirus 71 (EV71); settings: Enterovirus A, EV71; Vero cells; CPE; calculated on the organic part; n = 3; read-out: BrCr Strain IC50
Method: as §1, §2, §3

[5] = tested on: EV71 SHZH98 strain (genotype C4); test: CPE inhibition assay for anti-EV71, SHZH98 strain; type: cell-based, enterovirus 71 (EV71); settings: Enterovirus A, EV71; Vero cells; CPE; calculated on the organic part; n = 3; read-out: SHZH98 Strain IC50
Method: as §1, §2, §3

[6] = tested on: four different genotype enterovirus 71 (EV71) strains; test: CPE assay, summary over the four EV71 strains; type: cell-based; settings: Enterovirus A, EV71, read-out: IC50 (Figure 1)
Method: as §1, §3

Row | melting point [°C] | SMILES | IC50 [1] [µM] | TC50 (median toxic concentration) (Vero cells) [µM] | phosphorylation of MEK/ERK induced by EV71 infection [2] | IC50 [3] [µM] | IC50 [4] [µM] | IC50 [5] [µM] | IC50 [6] [µM]
1 | – | COc1ccc2cc3[n+](cc2c1OC)CCc1cc2c(cc1-3)OCO2 [BBR, berberine] | 14 | 147 | could inhibit the phosphorylation of MEK/ERK | 21.2 | 9.45 | 28.2 | 8.55 to 25.5
2 | 204 to 206 | CCOC(=O)COc1c(OC)ccc2cc3[n+](cc12)CCc1cc(OC)c(OC)cc1-3 (as salt: chloride) [4a, 2,3,10-Trimethoxy-9-ethyloxyformylmethylenoxy protoberberine chloride] | – | – | – | – | – | – | –
3 | 232 to 234 | COc1ccc2cc3[n+](cc2c1OCC(=O)OCC(C)C)CCc1cc2c(cc1-3)OCO2 (as salt: chloride) [2b, 2,3-Methylenedioxy-9-isobutyloxyformylmethylenoxy-10-methoxy protoberberine chloride] | – | – | – | – | – | – | –
